Data: patent publication US20020128317A1, “Treatment of pathological conditions characterized by an increased IL-1 level” (Laboratories NEGMA, priority 2001, published 2002)

Tests used:
Solubility = format: physicochemical
Description: (§1) Preferably the diacerein or rhein is administered orally in the conventional solid unit dosage form.

IL-1 [1] = experiment: Effect of administration on IL-1 levels in subjects; format: in vivo; settings: subjects with abnormally elevated IL-1 and TNF-α levels
cyclooxygenase pathway = experiment: Inhibitory effect on cyclooxygenase pathway; format: biochemical
Text: (§2) This unique mechanism of action of diacerein was thought to explain, at least in part, its efficacy in the symptomatic treatment of osteoarthritis.

cartilage degradation = experiment: Effect on cartilage degradation in osteoarthritis treatment; format: in vivo; settings: prescribed treatment protocol
IL-1 [2] = experiment: IL-1 inhibition, several studies in vitro and with animal models of osteoarthritis
Text: as §2

[3] = Stability in aqueous solution; format: physicochemical
Description: as §1

[4] = Gastric safety during osteoarthritis treatment; format: in vivo
Text: as §2

TNF-α = experiment: Effect of administration on TNF-α levels in subjects; format: in vivo; settings: subjects with abnormally elevated IL-1 and TNF-α levels
phospholipase pathway = experiment: Inhibitory effect on phospholipase pathway; format: biochemical
Text: as §2

[5] = test system: prostaglandin biosynthesis; experiment: Inhibition of prostaglandin biosynthesis; format: biochemical
Text: as §2

lipooxygenase pathway = experiment: Inhibitory effect on lipooxygenase pathway; format: biochemical
Text: as §2

Question: Which results are given for diacerein?
Answer: solubility in alcohol (Solubility; alcohol): virtually insoluble; solubility in water (Solubility; water): virtually insoluble; effect on IL-1 levels (IL-1 [1]): inhibitory effect; inhibitory effect on the cyclooxygenase pathway (cyclooxygenase pathway): no inhibitory effect was detected; effect on cartilage degradation (cartilage degradation): significant effect on cartilage degradation; IL-1 inhibition (IL-1 [2]): is an IL-1 inhibitor; stability in water [3]: may not be sufficiently stable; gastric safety profile [4]: excellent gastric safety profile; effect on TNF-α levels (TNF-α): inhibitory effect; inhibitory effect on the phospholipase pathway (phospholipase pathway): no inhibitory effect was detected; inhibition of prostaglandin biosynthesis [5]: neither diacerein nor rhein inhibit; inhibitory effect on the lipooxygenase pathway (lipooxygenase pathway): no inhibitory effect was detected
